Assays:
Assay type in all cases: toxicity, cell-based
Fibroblast = assay: Incucyte cell viability with human fibroblast; settings: 10 µM, compound concentration 10 uM
U2OS = assay: Incucyte cell viability with U2OS; settings: human, 10 µM, compound concentration 10 uM
HEK-293T = assay: Incucyte cell viability with HEK293T; settings: human, 10 µM, compound concentration 10 uM
Further: unitless GR value; below 1 slowed growth and below 0 cell loss.

Structure (SMILES) | Growth Rate (Fibroblast; 0 h, replicate number 1) | Growth Rate (Fibroblast; 0 h, replicate number 2) | Growth Rate (Fibroblast; 6 h, replicate number 1) | Growth Rate (Fibroblast; 12 h, replicate number 2) | Growth Rate (Fibroblast; 18 h, replicate number 2) | Growth Rate (U2OS; 0 h, replicate number 2) | Growth Rate (U2OS; 6 h, replicate number 2) | Growth Rate (U2OS; 12 h, replicate number 2) | Growth Rate (U2OS; 18 h, replicate number 2) | Growth Rate (HEK-293T; 0 h, replicate number 1) | Growth Rate (HEK-293T; 0 h, replicate number 2) | Growth Rate (HEK-293T; 6 h, replicate number 1) | Growth Rate (HEK-293T; 18 h, replicate number 1) | Growth Rate (HEK-293T; 18 h, replicate number 2) | Growth Rate (HEK-293T; 24 h, replicate number 1) | Growth Rate (HEK-293T; 24 h, replicate number 2) | Growth Rate (U2OS; 6 h, replicate number 1) | Growth Rate (HEK-293T; 6 h, replicate number 2) | Growth Rate (HEK-293T; 12 h, replicate number 1) | Growth Rate (HEK-293T; 12 h, replicate number 2) | also measured
CC1(C)Cc2nc(C3CCCC3)c([C@@H](F)c3ccc(C(F)(F)F)cc3)c(C3CCCCC3)c2[C@@H](O)C1 | -0.22 | -0.59 | 0.71 | 0.89 | 0.82 | 0.96 | 0.48 | 0.54 | 0.82 | 0.94 | -0.11 | 0.88 | 0.88 | 0.91 | 0.83 | 0.89 | – | – | – | – | Growth Rate (Fibroblast; 12 h, replicate number 1): 0.46; Growth Rate (Fibroblast; 18 h, replicate number 1): 0.51; Growth Rate (Fibroblast; 24 h, replicate number 1): 0.38; Growth Rate (Fibroblast; 24 h, replicate number 2): 0.95; Growth Rate (U2OS; 24 h, replicate number 1): 0.87
Cc1cc(CN(CC(=O)Nc2ccc(Cl)cc2Cl)C2CCCCC2)ccc1OCC(=O)O | – | -0.93 | – | 0.9 | 0.88 | – | – | 0.97 | – | 0.78 | 0.19 | – | – | – | – | – | 0.64 | – | – | – | Growth Rate (Fibroblast; 6 h, replicate number 2): 0.35; Growth Rate (Fibroblast; 24 h, replicate number 2): 0.87
Cc1c(CCC(=O)O)cccc1NC(=O)[C@@H](c1ccc(-c2cncc(Cl)c2)c(F)c1)C1CCCC1 | – | – | – | 0.3 | 0.9 | – | – | – | – | -0.19 | -0.54 | – | – | – | – | – | 0.95 | 0.98 | – | – | Growth Rate (Fibroblast; 6 h, replicate number 2): -0.66; Growth Rate (Fibroblast; 24 h, replicate number 2): 0.87; Growth Rate (U2OS; 0 h, replicate number 1): 0.68; Growth Rate (U2OS; 12 h, replicate number 1): 0.73
O=C1Nc2nc(-c3c(O)cccc3OCC3CC3)cc([C@@H]3CCCNC3)c2CO1 | – | -0.79 | – | – | – | -0.52 | 0.44 | 0.47 | 0.79 | 0.88 | -0.36 | 0.72 | 0.78 | – | 0.93 | – | – | 0.83 | 0.62 | 0.47 | Growth Rate (U2OS; 24 h, replicate number 1): 0.83; Growth Rate (U2OS; 24 h, replicate number 2): 0.98
O=C(NCCN1CCOCC1)c1ccc2nn(CCOc3ccc(Cl)cc3)cc2c1 | -1 | -0.92 | 0.63 | 0.78 | 0.98 | 0.25 | 0.98 | 0.88 | – | 0.54 | 0.3 | 0.47 | 0.71 | 0.47 | 0.72 | 0.61 | 0.71 | 0.26 | 0.82 | 0.18 | Growth Rate (Fibroblast; 6 h, replicate number 2): 0.87; Growth Rate (Fibroblast; 18 h, replicate number 1): 0.86; Growth Rate (Fibroblast; 24 h, replicate number 1): 0.92; Growth Rate (U2OS; 24 h, replicate number 1): 0.93
O=C(O)CCCCN(CCc1cc(F)ccc1OCc1ccc(-c2ccc(C(F)(F)F)cc2)cc1)Cc1ccc(C(=O)O)cc1 | -1 | -0.98 | 0.59 | – | – | -0.4 | 0.58 | 0.87 | 0.85 | 0.09 | -0.87 | – | – | – | – | – | 0.61 | – | – | – | Growth Rate (Fibroblast; 12 h, replicate number 1): 0.66; Growth Rate (Fibroblast; 18 h, replicate number 1): 0.85; Growth Rate (Fibroblast; 24 h, replicate number 1): 0.96; Growth Rate (U2OS; 0 h, replicate number 1): 0.99; Growth Rate (U2OS; 24 h, replicate number 2): 0.91
Cl.O=c1cc(C2CCNCC2)n2nc3cccc(Cl)c3c2[nH]1 | -0.94 | -0.98 | – | – | – | – | – | 1 | – | -0.29 | -0.61 | – | – | 0.96 | – | 0.91 | 0.98 | – | – | 0.58 | Growth Rate (U2OS; 0 h, replicate number 1): 0.61; Growth Rate (U2OS; 18 h, replicate number 1): 0.98
O=C(O)C[C@H]1CCn2c1c(Sc1ccc(Cl)cc1)c1ccc(F)cc12 | -1 | – | – | 0.4 | 0.97 | – | – | – | – | 0.01 | -0.28 | 0.76 | – | 0.93 | 0.92 | 0.78 | – | – | 0.96 | 0.99 | Growth Rate (Fibroblast; 6 h, replicate number 2): 0.42; Growth Rate (Fibroblast; 24 h, replicate number 1): 0.89; Growth Rate (Fibroblast; 24 h, replicate number 2): 0.83; Growth Rate (U2OS; 24 h, replicate number 1): 0.94
Cc1nc2c(cc1F)c(-c1nnc3c(n1)NC(=O)C3(C)C)nn2Cc1cccc(F)c1F | -1 | 0.67 | 0.59 | – | – | 0.99 | 0.58 | 0.84 | 0.95 | 0.61 | 0.48 | 0.97 | 0.75 | 0.8 | 0.79 | 0.91 | 0.9 | 0.57 | 0.95 | 0.74 | Growth Rate (Fibroblast; 18 h, replicate number 1): 0.85; Growth Rate (Fibroblast; 24 h, replicate number 1): 0.94
N#Cc1c(SCc2csc(-c3ccc(Cl)cc3)n2)nc(N2CCCC2)c(C#N)c1-c1ccc(OCCO)cc1 | – | -1 | – | – | – | 0.14 | 0.8 | 0.77 | 0.93 | -0.68 | -0.75 | – | – | – | – | – | 0.87 | – | – | – | Growth Rate (U2OS; 24 h, replicate number 2): 0.97
Cc1cc(S(=O)(=O)N2CC(C)(C)c3cc(-c4ccc(C(F)(F)F)cc4)ccc32)ccc1OCC(=O)O | -0.12 | -0.87 | 0.92 | – | – | -0.69 | 0.68 | 0.54 | 0.8 | 0.52 | -0.17 | 0.72 | 0.71 | 0.95 | 0.79 | – | 0.69 | 0.73 | 0.7 | 0.81 | Growth Rate (U2OS; 24 h, replicate number 2): 0.98
Cc1nn(-c2ccccc2)c(Nc2ccccc2C(=O)O)c1-c1cc2nccnc2c(F)c1F | – | -0.36 | 0.39 | – | 0.57 | – | – | – | – | 0.45 | -0.55 | – | – | – | – | – | 0.75 | – | – | – | Growth Rate (Fibroblast; 6 h, replicate number 2): -0.17; Growth Rate (Fibroblast; 24 h, replicate number 2): 0.79; Growth Rate (U2OS; 12 h, replicate number 1): 1
C[C@]12CC[C@@H]3c4ccc(C(N)=O)cc4CC[C@H]3[C@@H]1CC=C2c1cncc(F)c1 | – | -0.92 | – | – | – | – | – | 0.79 | 0.92 | -0.13 | – | 0.93 | 0.96 | 0.29 | 0.97 | 0.4 | – | -0.72 | 0.9 | 0.31 | Growth Rate (U2OS; 0 h, replicate number 1): 0.64; Growth Rate (U2OS; 12 h, replicate number 1): 0.98; Growth Rate (U2OS; 24 h, replicate number 2): 1
